Paper PMC3651882 (Bioconjugate chemistry, 2013)

What was measured:
Assay type in all cases: cell-based, human
KB-V1 cells [1] = test: Cellular uptake by flow cytometry; conditions: for Time dependence of cell fluorescence intensity (in words): 5 μM, 1, 2 and 4 h
KB-V1 cells [2] = test: Cytotoxicity, SRB method; conditions: 50 μM, 2 h incubation
KB-3-1 cells [3] = test: Cytotoxicity, SRB method; conditions: 50 NM as printed, 2 h incubation
KB-3-1 cells [4] = test: Subcellular colocalization, confocal microscopy; conditions: 15 μM, 2 h, Lysotracker Green, Hoechst 33342
KB-V1 cells [5] = test: Subcellular colocalization, confocal microscopy; conditions: 15 μM, 2 h, Lysotracker Green, Hoechst 33342
KB-3-1 cells [6] = test: Cellular uptake by flow cytometry; conditions: 2.5-15 μM, 2 h

| Structure (SMILES) | Time dependence of cell fluorescence intensity (in words) (KB-V1 cells [1]) | Cytotoxicity (in words) (KB-V1 cells [2]) | Cells killed (cell death) (KB-V1 cells [2]; then 46 h fresh medium, SRB) | Cytotoxicity (in words) (KB-3-1 cells [3]) | Subcellular location (in words) (KB-3-1 cells [4]) | Cellular uptake (in words) (KB-V1 cells [1]; 2.5-15 μM, 2 h) | Subcellular location (in words) (KB-V1 cells [5]) | Cellular uptake (in words) (KB-3-1 cells [6]) |
| --- | --- | --- | --- | --- | --- | --- | --- | --- |
| O=C(O)c1ccc2c(c1)C(=O)OC21c2ccc(O)cc2Oc2cc(O)ccc21 [5-FAM, 5-carboxyfluorescein] | did not change with time |  |  |  |  |  |  |  |
| COc1cccc2c1C(=O)c1c(O)c3c(c(O)c1C2=O)C[C@@](O)(C(=O)CO)C[C@@H]3O[C@H]1C[C@H](N)[C@H](O)[C@H](C)O1 [Dox, doxorubicin] | did not change with time | no significant cytotoxicity | 14% | nearly all the cells were killed | no preference to accumulate in any subcellular organelles | greatly inhibited | dim red fluorescence was observed only on the membrane | very efficient |
